How the values were obtained:
Format in all cases: cell-based, human
CLTA Off 1 = experiment: High-throughput DNA sequencing of genome modifications; conditions: 500 ng Cas9 plasmid; for Mod. Freq (indels/total sequences), CLTA Off 1: Table 4
Experimental: (§1) We assayed these Cas9:sgRNA combinations in human cells for their ability to modify the three on-target loci as well as 11 known off-target genomic sites (Table 3)^4,5,10,13. Cells were treated with or without 1 μM 4-HT during transfection, and after 12 h the media was replaced with fresh media lacking 4-HT. […] Genomic DNA was isolated 60 h post-transfection and analyzed by high-throughput DNA sequencing
(§2) High-throughput DNA sequencing of genome modifications. HEK293-GFP stable cells were transfected with plasmids expressing Cas9 (500 ng) and sgRNA (125 ng) as described above. […] 4-HT (1 μM final), where appropriate, was added during transfection. 12 h after transfection, the media was replaced with full serum media without 4-HT. Genomic DNA was isolated and pooled from three biological replicates 60 h after transfection using a previously reported^11 protocol with a DNAdvance Kit (Agencourt). 150 ng or 200 ng of genomic DNA was used as a template to amplify by PCR the on-target and off-target genomic sites with flanking HTS primer pairs described previously^11. PCR products were purified using RapidTips (Diffinity Genomics) and quantified using the PicoGreen dsDNA Assay Kit (Invitrogen). Purified DNA was PCR amplified with primers containing sequencing adaptors, purified with the MinElute PCR Purification Kit (Qiagen) and AMPure XP PCR Purification (Agencourt). Samples were sequenced on a MiSeq high-throughput DNA sequencer (Illumina), and sequencing data was analyzed as described previously^4.
(§3) Sensitivity limit of off-target cleavage assays. We used paired end sequencing to identify indels caused by genomic on- and off-target cleavage. […] A 1 ng sample of human gDNA represents only ˜330 unique genomes, and thus only ˜330 unique copies of each genomic site are present. PCR amplification for each genomic target was performed on a total of 150 ng or 200 ng of input gDNA, which provides amplicons derived from at most 50,000 or 65,000 unique gDNA copies, respectively. Therefore, the high-throughput sequencing assay cannot detect rare genome modification events that occur at a frequency of less than approximately 1 in 50,000 (0.002%). When comparing between two conditions, such as wt Cas9 vs. intein-Cas9, this threshold becomes approximately 10 in 50,000 (0.02%) when using the Fisher exact test and a conservative multiple comparison correction (Bonferroni with 14 samples). See also Minoche, A. E., Dohm, J. C., & Himmelbauer, H. Evaluation of genomic high-throughput sequencing data generated on Illumina HiSeq and Genome Analyzer systems. Genome Biology 12, R112 (2011).

CLTA Off 2 = experiment: as above; conditions: 500 ng Cas9 plasmid; for Mod. Freq (indels/total sequences), CLTA Off 2: Table 4
Experimental: as §1, §2, §3

CLTA Off 3 = experiment: as above; conditions: 500 ng Cas9 plasmid; for Mod. Freq (indels/total sequences), CLTA Off 3: Table 4
Experimental: as §1, §2, §3

CLTA On = experiment: as above; conditions: 500 ng Cas9 plasmid; for Mod. Freq (indels/total sequences), CLTA On: Table 4
Experimental: as §1, §2, §3

EMX Off 1 = experiment: as above; conditions: 500 ng Cas9 plasmid; for Mod. Freq (indels/total sequences), EMX Off 1: Table 4
Experimental: as §1, §2, §3

EMX Off 2 = experiment: as above; conditions: 500 ng Cas9 plasmid; for Mod. Freq (indels/total sequences), EMX Off 2: Table 4
Experimental: as §1, §2, §3

EMX Off 3 = experiment: as above; conditions: 500 ng Cas9 plasmid; for Mod. Freq (indels/total sequences), EMX Off 3: Table 4
Experimental: as §1, §2, §3

EMX Off 4 = experiment: as above; conditions: 500 ng Cas9 plasmid; for Mod. Freq (indels/total sequences), EMX Off 4: Table 4
Experimental: as §1, §2, §3

EMX On = experiment: as above; conditions: 500 ng Cas9 plasmid; for Mod. Freq (indels/total sequences), EMX On: Table 4
Experimental: as §1, §2, §3

VEGF Off 1 = experiment: as above; conditions: 500 ng Cas9 plasmid; for Mod. Freq (indels/total sequences), VEGF Off 1: Table 4
Experimental: as §1, §2, §3

VEGF Off 2 = experiment: as above; conditions: 500 ng Cas9 plasmid; for Mod. Freq (indels/total sequences), VEGF Off 2: Table 4
Experimental: as §1, §2, §3

VEGF Off 3 = experiment: as above; conditions: 500 ng Cas9 plasmid; for Mod. Freq (indels/total sequences), VEGF Off 3: Table 4
Experimental: as §1, §2, §3

VEGF Off 4 = experiment: as above; conditions: 500 ng Cas9 plasmid; for Mod. Freq (indels/total sequences), VEGF Off 4: Table 4
Experimental: as §1, §2, §3

VEGF On = experiment: as above; conditions: 500 ng Cas9 plasmid; for Mod. Freq (indels/total sequences), VEGF On: Table 4
Experimental: as §1, §2, §3

[1] = test system: EMX, VEGF, and CLTA genomic loci; experiment: High-throughput DNA sequencing of genome modifications, summary over on-target and off-target sites
Experimental: as §1, §2, §3

HEK293-GFP stable cells = experiment: Western blot analysis of intein splicing; conditions: FIG. 6
Experimental: FIGS. 6A-6B. […] 12 h after transfection, cells were treated with or without 4-HT (1 μM). Cells were lysed and pooled from three technical replicates 4, 8, 12, or 24 h after 4-HT treatment. An anti-FLAG antibody (Sigma-Aldrich F1804) and an anti-mouse 800CW IRDye (LI-COR) were used to visualize the gel. Lanes 1 and 2 contain purified dCas9-VP64-3×FLAG protein and lysate from untransfected HEK293 cells, respectively.
Western blot analysis of intein splicing. HEK293-GFP stable cells were transfected with 500 ng Cas9 expression plasmid and 125 ng sgRNA expression plasmid. 12 h after transfection, the media was replaced with full serum media, with or without 4-HT (1 μM). Cells were lysed and pooled from three technical replicates 4, 8, 12, or 24 h after 4-HT treatment. Samples were run on a Bolt 4-12% Bis-Tris gel (Life Technologies). An anti-FLAG antibody (Sigma-Aldrich F1804) and an anti-mouse 800CW IRDye (LI-COR) were used to visualize the gel on an Odyssey IR imager.

## intein(Ser219)-Cas9: Cas9 with 37R3-2 intein replacing Ser219 (SEQ ID NO: 30)
CLTA Off 1; +4-HT (1 μM, 12 h)
  Mod. Freq (indels/total sequences), CLTA Off 1: 0.36%
CLTA Off 1; +4-HT, Table 6
  Mod Freq (indels/total sequences), CLTA Off 1: 0.23%
CLTA Off 1; −4-HT
  Mod. Freq (indels/total sequences), CLTA Off 1: 0.01%
CLTA Off 2; +4-HT (1 μM, 12 h)
  Mod. Freq (indels/total sequences), CLTA Off 2: 0.00%
CLTA Off 2; +4-HT, Table 6
  Mod Freq (indels/total sequences), CLTA Off 2: 0.00%
CLTA Off 2; −4-HT
  Mod. Freq (indels/total sequences), CLTA Off 2: 0.00%
CLTA Off 3; +4-HT (1 μM, 12 h)
  Mod. Freq (indels/total sequences), CLTA Off 3: 0.03%
CLTA Off 3; +4-HT, Table 6
  Mod Freq (indels/total sequences), CLTA Off 3: 0.01%
CLTA Off 3; −4-HT
  Mod. Freq (indels/total sequences), CLTA Off 3: 0.00%
CLTA On; +4-HT (1 μM, 12 h)
  Mod. Freq (indels/total sequences), CLTA On: 14.48%
CLTA On; +4-HT, Table 6
  Mod Freq (indels/total sequences), CLTA On: 9.13%
CLTA On; −4-HT
  Mod. Freq (indels/total sequences), CLTA On: 4.30%
EMX Off 1; +4-HT (1 μM, 12 h)
  Mod. Freq (indels/total sequences), EMX Off 1: 0.42%
EMX Off 1; +4-HT, Table 6
  Mod Freq (indels/total sequences), EMX Off 1: 0.20%
EMX Off 1; −4-HT
  Mod. Freq (indels/total sequences), EMX Off 1: 0.01%
EMX Off 2; +4-HT (1 μM, 12 h)
  Mod. Freq (indels/total sequences), EMX Off 2: 0.04%
EMX Off 2; +4-HT, Table 6
  Mod Freq (indels/total sequences), EMX Off 2: 0.04%
EMX Off 2; −4-HT
  Mod. Freq (indels/total sequences), EMX Off 2: 0.02%
EMX Off 3; +4-HT (1 μM, 12 h)
  Mod. Freq (indels/total sequences), EMX Off 3: 0.77%
EMX Off 3; +4-HT, Table 6
  Mod Freq (indels/total sequences), EMX Off 3: 0.54%
EMX Off 3; −4-HT
  Mod. Freq (indels/total sequences), EMX Off 3: 0.05%
EMX Off 4; +4-HT (1 μM, 12 h)
  Mod. Freq (indels/total sequences), EMX Off 4: 3.16%
EMX Off 4; +4-HT, Table 6
  Mod Freq (indels/total sequences), EMX Off 4: 2.18%
EMX Off 4; −4-HT
  Mod. Freq (indels/total sequences), EMX Off 4: 0.19%
EMX On; +4-HT (1 μM, 12 h)
  Mod. Freq (indels/total sequences), EMX On: 13.57%
EMX On; +4-HT, Table 6
  Mod Freq (indels/total sequences), EMX On: 8.25%
EMX On; −4-HT
  Mod. Freq (indels/total sequences), EMX On: 1.87%
VEGF Off 1; +4-HT (1 μM, 12 h)
  Mod. Freq (indels/total sequences), VEGF Off 1: 8.50%
VEGF Off 1; +4-HT, Table 6
  Mod Freq (indels/total sequences), VEGF Off 1: 4.61%
VEGF Off 1; −4-HT
  Mod. Freq (indels/total sequences), VEGF Off 1: 0.43%
VEGF Off 2; +4-HT (1 μM, 12 h)
  Mod. Freq (indels/total sequences), VEGF Off 2: 1.49%
VEGF Off 2; +4-HT, Table 6
  Mod Freq (indels/total sequences), VEGF Off 2: 0.90%
VEGF Off 2; −4-HT
  Mod. Freq (indels/total sequences), VEGF Off 2: 0.08%
VEGF Off 3; +4-HT (1 μM, 12 h)
  Mod. Freq (indels/total sequences), VEGF Off 3: 0.37%
VEGF Off 3; +4-HT, Table 6
  Mod Freq (indels/total sequences), VEGF Off 3: 0.16%
VEGF Off 3; −4-HT
  Mod. Freq (indels/total sequences), VEGF Off 3: 0.04%
VEGF Off 4; +4-HT (1 μM, 12 h)
  Mod. Freq (indels/total sequences), VEGF Off 4: 3.89%
VEGF Off 4; +4-HT, Table 6
  Mod Freq (indels/total sequences), VEGF Off 4: 2.03%
VEGF Off 4; −4-HT
  Mod. Freq (indels/total sequences), VEGF Off 4: 0.10%
VEGF On; +4-HT (1 μM, 12 h)
  Mod. Freq (indels/total sequences), VEGF On: 3.66%
VEGF On; +4-HT, Table 6
  Mod Freq (indels/total sequences), VEGF On: 3.17%
VEGF On; −4-HT
  Mod. Freq (indels/total sequences), VEGF On: 1.05%
[1]; absence of 4-HT
  Activity compared to wild-type Cas9: much less active
[1]; presence of 4-HT
  Activity compared to wild-type Cas9: slightly less active than wild-type Cas9
HEK293-GFP stable cells; absence of 4-HT
  Spliced product (Western blot): no spliced product was detected
HEK293-GFP stable cells; earliest assayed time point (4 h) following 4-HT treatment (1 μM)
  Spliced product (Western blot): presence of spliced product
